# Measured values as given in PubChem BioAssay (NCI).
#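 Abbreviation: GI50, concentration required for 50% inhibition of growth. TGI marks complete inhibition of growth.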
# Experiments:
# Assay in all cases: NCI tumour cell line growth inhibition, 384-well format
# IGROV1 ovarian = test system: IGROV1 ovarian
# SN12C renal = test system: SN12C renal
# SK-OV-3 ovarian = test system: SK-OV-3 ovarian
# HOP-92 NSCLC = test system: HOP-92 NSCLC
# SK-MEL-5 melanoma = test system: SK-MEL-5 melanoma
# DU-145 prostate = test system: DU-145 prostate
# OVCAR-8 ovarian = test system: OVCAR-8 ovarian
# NCI-H322M lung = test system: NCI-H322M lung
# NCI/ADR-RES ovarian = test system: NCI/ADR-RES ovarian
# SF-539 CNS = test system: SF-539 CNS
# SK-MEL-2 melanoma = test system: SK-MEL-2 melanoma
# SF-268 CNS = test system: SF-268 CNS
# NCI-H460 NSCLC = test system: NCI-H460 NSCLC
# 786-0 renal = test system: 786-0 renal
# HCT-15 colon = test system: HCT-15 colon
# CAKI-1 renal = test system: CAKI-1 renal
# OVCAR-3 ovarian = test system: OVCAR-3 ovarian
# UACC-257 melanoma = test system: UACC-257 melanoma
# COLO 205 colon = test system: COLO 205 colon
# MCF7 breast = test system: MCF7 breast
# HCT-116 colon = test system: HCT-116 colon
# NCI-H522 lung = test system: NCI-H522 lung
# HT29 colon = test system: HT29 colon
# SF-295 CNS = test system: SF-295 CNS
# LOX IMVI melanoma = test system: LOX IMVI melanoma
# A549 NSCLC = test system: A549 NSCLC
# SNB-75 CNS = test system: SNB-75 CNS
# EKVX NSCLC = test system: EKVX NSCLC
# SK-MEL-28 melanoma = test system: SK-MEL-28 melanoma
# KM12 colon = test system: KM12 colon
# K-562 leukemia = test system: K-562 leukemia
# SW-620 colon = test system: SW-620 colon
# OVCAR-4 ovarian = test system: OVCAR-4 ovarian
# HCC-2998 colon = test system: HCC-2998 colon
# ACHN renal = test system: ACHN renal
# RPMI-8226 leukemia = test system: RPMI-8226 leukemia
# PC-3 prostate = test system: PC-3 prostate
# U251 glioblastoma = test system: U251 glioblastoma
# CCRF-CEM leukemia = test system: CCRF-CEM leukemia
# NCI-H23 lung = test system: NCI-H23 lung
# HL-60(TB) leukemia = test system: HL-60(TB) leukemia
# BT-549 breast = test system: BT-549 breast
# M14 melanoma = test system: M14 melanoma
# NCI-H226 lung = test system: NCI-H226 lung
# TK-10 renal = test system: TK-10 renal
# HS 578T breast = test system: HS 578T breast
# MALME-3M melanoma = test system: MALME-3M melanoma
# UACC-62 melanoma = test system: UACC-62 melanoma
# A498 renal = test system: A498 renal
# MOLT-4 leukemia = test system: MOLT-4 leukemia
# MDA-MB-435 melanoma = test system: MDA-MB-435 melanoma
# RXF 393 renal = test system: RXF 393 renal
# SNB-19 CNS = test system: SNB-19 CNS
# HOP-62 NSCLC = test system: HOP-62 NSCLC
# MDA-MB-468 breast = test system: MDA-MB-468 breast
smiles,measurement,setting,value
CCOC(=O)CCC(NC(=O)C(Cc1ccc(N(CCCl)CCCl)cc1)NC=O)C(=O)OCC (stereo not given),GI50,IGROV1 ovarian,1.37 µM
same,TGI,IGROV1 ovarian,5.37 µM
same,GI50,SN12C renal,0.604 µM
same,TGI,SN12C renal,2.61 µM
same,GI50,SK-OV-3 ovarian,3.27 µM
same,TGI,SK-OV-3 ovarian,12.4 µM
same,GI50,HOP-92 NSCLC,1.02 µM
same,TGI,HOP-92 NSCLC,3.49 µM
same,GI50,SK-MEL-5 melanoma,1.22 µM
same,TGI,SK-MEL-5 melanoma,2.59 µM
same,GI50,DU-145 prostate,2.42 µM
same,TGI,DU-145 prostate,5.42 µM
same,GI50,OVCAR-8 ovarian,3.24 µM
same,TGI,OVCAR-8 ovarian,17 µM
same,GI50,NCI-H322M lung,13.8 µM
same,TGI,NCI-H322M lung,30.1 µM
same,GI50,NCI/ADR-RES ovarian,8.38 µM
same,TGI,NCI/ADR-RES ovarian,21.2 µM
same,GI50,SF-539 CNS,0.837 µM
same,TGI,SF-539 CNS,2.16 µM
same,GI50,SK-MEL-2 melanoma,0.64 µM
same,TGI,SK-MEL-2 melanoma,1.85 µM
same,GI50,SF-268 CNS,0.737 µM
same,TGI,SF-268 CNS,2.28 µM
same,GI50,NCI-H460 NSCLC,0.566 µM
same,TGI,NCI-H460 NSCLC,2.91 µM
same,GI50,786-0 renal,1.34 µM
same,TGI,786-0 renal,2.91 µM
same,GI50,HCT-15 colon,4.54 µM
same,TGI,HCT-15 colon,16.8 µM
same,GI50,CAKI-1 renal,0.463 µM
same,TGI,CAKI-1 renal,2.14 µM
same,GI50,OVCAR-3 ovarian,1.14 µM
same,TGI,OVCAR-3 ovarian,2.71 µM
same,GI50,UACC-257 melanoma,1.97 µM
same,TGI,UACC-257 melanoma,4.65 µM
same,GI50,COLO 205 colon,0.602 µM
same,TGI,COLO 205 colon,2.38 µM
same,GI50,MCF7 breast,4.06 µM
same,TGI,MCF7 breast,25.9 µM
same,GI50,HCT-116 colon,4.13 µM
same,TGI,HCT-116 colon,24.3 µM
same,GI50,NCI-H522 lung,0.729 µM
same,TGI,NCI-H522 lung,2.11 µM
same,GI50,HT29 colon,3.71 µM
same,TGI,HT29 colon,16.6 µM
same,GI50,SF-295 CNS,2.12 µM
same,TGI,SF-295 CNS,4.49 µM
same,GI50,LOX IMVI melanoma,2.69 µM
same,TGI,LOX IMVI melanoma,13.2 µM
same,GI50,A549 NSCLC,5.77 µM
same,TGI,A549 NSCLC,27.5 µM
same,GI50,SNB-75 CNS,2.35 µM
same,TGI,SNB-75 CNS,5.59 µM
same,GI50,EKVX NSCLC,18.9 µM
same,TGI,EKVX NSCLC,41.6 µM
same,GI50,SK-MEL-28 melanoma,1.48 µM
same,TGI,SK-MEL-28 melanoma,3.34 µM
same,GI50,KM12 colon,15 µM
same,TGI,KM12 colon,36.3 µM
same,GI50,K-562 leukemia,13.1 µM
same,TGI,K-562 leukemia,27.8 µM
same,GI50,SW-620 colon,2.86 µM
same,TGI,SW-620 colon,20.6 µM
same,GI50,OVCAR-4 ovarian,2.6 µM
same,TGI,OVCAR-4 ovarian,5.83 µM
same,GI50,HCC-2998 colon,0.712 µM
same,TGI,HCC-2998 colon,13.9 µM
same,GI50,ACHN renal,0.446 µM
same,TGI,ACHN renal,1.88 µM
same,GI50,RPMI-8226 leukemia,0.355 µM
same,TGI,RPMI-8226 leukemia,0.899 µM
same,GI50,PC-3 prostate,5.25 µM
same,TGI,PC-3 prostate,19.1 µM
same,GI50,U251 glioblastoma,1.82 µM
same,TGI,U251 glioblastoma,6.04 µM
same,GI50,CCRF-CEM leukemia,0.131 µM
same,TGI,CCRF-CEM leukemia,0.281 µM
same,GI50,NCI-H23 lung,1.12 µM
same,TGI,NCI-H23 lung,2.99 µM
same,GI50,HL-60(TB) leukemia,0.0335 µM
same,TGI,HL-60(TB) leukemia,0.138 µM
same,GI50,BT-549 breast,12.1 µM
same,TGI,BT-549 breast,27.5 µM
same,GI50,M14 melanoma,0.449 µM
same,TGI,M14 melanoma,1.4 µM
same,GI50,NCI-H226 lung,1.71 µM
same,TGI,NCI-H226 lung,10.9 µM
same,GI50,TK-10 renal,11.4 µM
same,TGI,TK-10 renal,29.2 µM
same,GI50,HS 578T breast,2.58 µM
same,TGI,HS 578T breast,14.3 µM
same,GI50,MALME-3M melanoma,1.03 µM
same,TGI,MALME-3M melanoma,2.22 µM
same,GI50,UACC-62 melanoma,0.758 µM
same,TGI,UACC-62 melanoma,2.27 µM
same,GI50,A498 renal,5.47 µM
same,TGI,A498 renal,26.6 µM
same,GI50,MOLT-4 leukemia,0.0322 µM
same,TGI,MOLT-4 leukemia,0.113 µM
same,GI50,MDA-MB-435 melanoma,3.19 µM
same,TGI,MDA-MB-435 melanoma,8.84 µM
same,GI50,RXF 393 renal,1.76 µM
same,TGI,RXF 393 renal,3.19 µM
same,GI50,SNB-19 CNS,3.81 µM
same,TGI,SNB-19 CNS,26.1 µM
same,GI50,HOP-62 NSCLC,1.72 µM
same,TGI,HOP-62 NSCLC,4.13 µM
same,GI50,MDA-MB-468 breast,0.339 µM
same,TGI,MDA-MB-468 breast,0.763 µM
